Assay results: patent US5279956A, “Activated protein C polypeptides and anti-peptide antibodies, diagnostic methods and systems for inhibiting activated protein C” (The Scripps Research Institute, priority 1991, dated 1994)
No end group written: not given here.

Biological target: T1, APC (Homo sapiens, UniProt P04070)
T1 construct: begins at amino acid residue position 158 and ends at 419; The light chain is 155 amino acid residues in length; tissue Factor IX concentrate from Immuno AG, Vienna; thrombin from Enzyme Research Laboratories
T1 sequence (P04070 212-461): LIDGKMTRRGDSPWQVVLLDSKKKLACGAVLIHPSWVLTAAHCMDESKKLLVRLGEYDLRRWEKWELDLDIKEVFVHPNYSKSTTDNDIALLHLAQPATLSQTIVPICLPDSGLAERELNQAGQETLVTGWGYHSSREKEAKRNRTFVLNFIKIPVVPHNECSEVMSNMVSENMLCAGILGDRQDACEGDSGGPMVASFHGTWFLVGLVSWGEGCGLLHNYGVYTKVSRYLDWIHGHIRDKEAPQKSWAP
T1 sequence (P04070 43-197): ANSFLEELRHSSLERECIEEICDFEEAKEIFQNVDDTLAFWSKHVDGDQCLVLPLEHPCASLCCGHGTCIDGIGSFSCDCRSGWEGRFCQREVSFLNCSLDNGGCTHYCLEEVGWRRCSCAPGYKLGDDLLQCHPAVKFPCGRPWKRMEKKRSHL
Experiment: APC-catalyzed inactivation of Factor Va, read out by Factor Va-prothrombinase assay
Format: biochemical
Procedure: FIG. 5 illustrates the APC-catalyzed inactivation of Factor Va in the presence of peptide-(390-404) and phospholipids. The assay was carried out in TBS-BSA and 2.5 mM CaCl2 at pH 7.4 as described in Example 5a5) using 0.25 nM APC, 10.0 nM Va, 50 μM phospholipid vesicles and 0 to 50 μM peptide-(390-404), that had been preincubated for 20 minutes at 22° C. with Factor Va. Factor Va inactivation by APC was indirectly determined using the cofactor activity of Factor Va in a prothrombinase assay as described in Example 5a5). Residual APC activity in the presence of the peptide was calculated from a standard curve.
The assay consisted of two parts wherein the APC catalyzed inactivation of Factor Va in the absence or presence of peptides was tested in the first part followed by the indirect determination of remaining Factor Va activity in a prothrombinase assay in the second part.
The APC catalyzed inactivation of Factor Va assays were performed in 96-well flat bottom ELISA plates (Stockwell Scientific, Walnut, Calif.). The reactions were performed either in the presence or absence of phospholipid vesicles to determine if peptide-(390-404) inhibited APC anticoagulant activity by inhibiting the binding of APC or its substrate to phospholipids or if it was independent of phospholipid surfaces. […]

“YGVYTKVSRYLDWIH-NH2 [peptide-(390-404), YGVYTKVSRYLDWIH]” was tested, and the IC50 (50 μM phospholipid vesicles, 0.25 nM APC, 10.0 nM Va, read-out: half-maximal inhibition of APC-catalyzed inactivation of Factor Va) was 4 µM and the “inhibition of APC activity” value (absence of phospholipids, 5 nM APC, 40 nM Va, 50 μM peptide) was 94%.
